Assay results from patent US20250188030A1, “Biphenyl and Phenylpyridine Compounds” (Pfizer Inc., priority 2023, published 2025).
Read-outs that look alike come from different tables or passages of the source.

Assays:
H3K9AC (HT1080 cells) = experiment: H3K9AC Sandwich ELISA Assay in HT1080 cells (KAT2A primary cell-based screening assay); set-up: species or system Human
Method in brief: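 HT1080 fibrosarcoma cells seeded 16 h, then treated 24 h at 37 °C with 10-point 1:3 compound dilutions (top 10 µM final, 0.1% DMSO). Acid lysates neutralized with butyrate/PMSF; H3K9ac measured by total-H3-capture sandwich ELISA with luminescent HRP readout, IC50 by four-parameter fit.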

KAT2A = KAT2A (Homo sapiens (Human), UniProt Q92830); experiment: KAT2A acetyltransferase biochemical assay (RapidFire mass spectrometry, AcCoA to CoA)
KAT2A, sequence (Q92830 whole entry): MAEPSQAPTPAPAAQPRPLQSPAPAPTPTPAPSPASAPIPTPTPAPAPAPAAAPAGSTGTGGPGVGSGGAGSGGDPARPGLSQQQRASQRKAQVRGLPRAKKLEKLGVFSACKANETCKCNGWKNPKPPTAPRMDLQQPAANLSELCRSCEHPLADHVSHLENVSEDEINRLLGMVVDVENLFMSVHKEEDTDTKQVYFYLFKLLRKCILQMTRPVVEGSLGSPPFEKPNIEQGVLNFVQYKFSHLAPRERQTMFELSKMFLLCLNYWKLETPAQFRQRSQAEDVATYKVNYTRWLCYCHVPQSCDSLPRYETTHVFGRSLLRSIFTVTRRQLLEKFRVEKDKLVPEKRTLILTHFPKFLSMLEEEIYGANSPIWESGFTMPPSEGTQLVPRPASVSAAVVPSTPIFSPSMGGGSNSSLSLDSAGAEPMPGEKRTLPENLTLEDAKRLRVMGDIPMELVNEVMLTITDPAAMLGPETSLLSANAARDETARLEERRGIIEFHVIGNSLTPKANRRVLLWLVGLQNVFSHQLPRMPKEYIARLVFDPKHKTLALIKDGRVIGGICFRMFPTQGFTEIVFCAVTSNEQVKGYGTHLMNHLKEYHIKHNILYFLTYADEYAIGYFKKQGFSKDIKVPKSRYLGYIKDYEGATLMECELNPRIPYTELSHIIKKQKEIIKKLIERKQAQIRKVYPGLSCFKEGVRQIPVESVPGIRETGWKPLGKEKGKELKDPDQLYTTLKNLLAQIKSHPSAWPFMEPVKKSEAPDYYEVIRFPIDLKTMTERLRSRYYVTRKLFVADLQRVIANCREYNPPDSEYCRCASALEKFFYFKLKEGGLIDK

MM.1S cells = experiment: MM1.S 10 Day Proliferation Assay (CellTiter-Glo); assay type: cell-based, Human
Experimental: Human B lymphoblast cell line MM.1S was obtained from American Type Culture Collection (ATCC), Manassas, VA USA, Cat. MM.1S (ATCC® CRL-2974™). Cells were cultured in RPMI (Thermo Fisher Scientific/Gibco Life Technologies Cat. #111875-093) plus 10% (v/v) FBS (Thermo Fisher Scientific/Gibco Life Technologies Cat. #26140-079) and 1% Penicillin-Streptomycin (Thermo Fisher Scientific/Gibco Life Technologies Cat. #15070063) at 37° C. in 5% CO2.
MM1.S cells were trypsinized cell viability count performed, and cells suspended in complete media at 5,556 cells/ml. Cells were then seeded (90 μl/well) into a 96-well round black/clear bottom, ULA (Ultra-Low Attachment surface plate (Corning cat #4520) at a density of 500 cells/well. Cells were then incubated for 16 hours at 37° C. and 5% CO2. Compound dilution plates were prepared in 96-well, clear U-bottom, polypropylene plates (Corning 3365) in 100% DMSO at 10 mM stock concentration in duplicate wells, using a 10-point serial dilution (1:3 dilutions). Compounds were diluted to 1:100 in growth medium. Then 10 μl of diluted compounds were added to each well of the cell plates using a Beckman FX liquid handling system such that the highest compound concentration tested was 10 μM final, with a 0.1% final DMSO concentration in the total volume of 100 μl. Plates were incubated for 10 total days at 37° C. and 5% CO2. Fresh media containing compound was refreshed at 5 days treatment.
Finally, the treatment plates were removed from the incubator and 100 μl of CellTiter-Glo Luminescent reagent was added to each well, and plates were equilibrated in the dark for 30 minutes. Plates were read on the PHERAstar plate reader using the 96-well with Luminescent reading mode. IC50 values were calculated using a four-parameter fit with GraphPad Prism version 9.5.1 or in house modified IDBS ActivityBase data analyzing package.

[1] = Homo sapiens, HT-1080, H3K9AC sandwich ELISA
[2] = read-out: KAT2A Ki at 1 μM AcCoA, 5 μM H3 1-21 peptide, 0.5 nM KAT2A, 90-minute reaction

SMILES	IC50 (H3K9AC (HT1080 cells); [1])	Ki (KAT2A; [2])	IC50 (MM.1S cells; Homo sapiens, MM1.S, 240 h)	IC50 (H3K9AC (HT1080 cells); H3K9AC sandwich ELISA)	IC50 (MM.1S cells)	Ki (KAT2A; KAT2A Ki at 1 μM AcCoA, 5 μM H3 1-21 peptide, 0.5 nM KAT2A, 90-minute reaction)
CC(C)c1ccccc1-c1c(CC(=O)O)cccc1O[C@@H]1CC[C@@H](NC(=O)[C@@H]2CC(C)(C)CN2C)C1 (atropisomer, axis not shown) [Example H4, [(1ψ)-2′-(propan-2-yl)-6-({(1R,3R)-3-[(1,4,4-trimethyl-L-prolyl)amino]cyclopentyl}oxy)[1,1′-biphenyl]-2-yl]acetic acid]	112 nM	42.8 nM	385 nM			
CN1CC(C)(C)C[C@H]1C(=O)N[C@@H]1CC[C@@H](Oc2cccc(CC(=O)NS(C)(=O)=O)c2-c2ccccc2C2CCC2)C1 (atropisomer, axis not shown) [Example I4, N-[(1R,3R)-3-{[(1ψ)-2′-cyclobutyl-6-{2-[(methanesulfonyl)amino]-2-oxoethyl}[1,1′-biphenyl]-2-yl]oxy}cyclopentyl]-1,4,4-trimethyl-L-prolinamide]		24.2 nM	249 nM	23.2 nM		
CN1CC(C)(C)C[C@H]1C(=O)N[C@@H]1CC[C@@H](Oc2cccc(CC(=O)NS(N)(=O)=O)c2-c2ccccc2C2CCC2)C1 (atropisomer, axis not shown) [Example I5, N-[(1R,3R)-3-({(1ψ)-2′-cyclobutyl-6-[2-oxo-2-(sulfamoylamino)ethyl][1,1′-biphenyl]-2-yl}oxy)cyclopentyl]-1,4,4-trimethyl-L-prolinamide]	59 nM	13.6 nM	88.7 nM			
CN1CC2(CCCC2)C[C@H]1C(=O)N[C@@H]1CC[C@@H](Oc2cccc(C(=O)NS(C)(=O)=O)c2-c2cccc(F)c2C2CCC2)C1 (atropisomer, axis not shown) [Example I10, (3ξ)-N-[(1R,3R)-3-({(1ψ)-2′-cyclobutyl-3′-fluoro-6-[(methanesulfonyl)carbamoyl][1,1′-biphenyl]-2-yl}oxy)cyclopentyl]-2-methyl-2-azaspiro[4.4]nonane-3-carboxamide]	63.8 nM	6.29 nM	359 nM			
CN1CC(C)(C)C[C@H]1C(=O)N[C@@H]1CC[C@@H](Oc2cccc(C(=O)NS(=O)(=O)N3CCC3)c2-c2cccc(F)c2C2CCC2)C1 (atropisomer, axis not shown) [Example I13, N-[(1R,3R)-3-({(1ψ)-6-[(azetidine-1-sulfonyl)carbamoyl]-2′-cyclobutyl-3′-fluoro[1,1′-biphenyl]-2-yl}oxy)cyclopentyl]-1,4,4-trimethyl-L-prolinamide]	24.5 nM	25 nM	238 nM			
CCN(C)S(=O)(=O)NC(=O)c1cccc(O[C@@H]2CC[C@@H](NC(=O)[C@@H]3CC(C)(C)CN3C)C2)c1-c1cccc(F)c1C1CCC1 (atropisomer, axis not shown) [Example I14, N-[(1R,3R)-3-{[(1ψ)-2′-cyclobutyl-6-{[ethyl(methyl)sulfamoyl]carbamoyl}-3′-fluoro[1,1′-biphenyl]-2-yl]oxy}cyclopentyl]-1,4,4-trimethyl-L-prolinamide]	18.1 nM	33.9 nM	69.3 nM			
CC(C)S(=O)(=O)NC(=O)Cc1cccc(O[C@@H]2CC[C@@H](NC(=O)[C@@]3(F)CNC4(CCC4)C3)C2)c1-c1cccc(F)c1C1CCC1 (atropisomer, axis not shown) [Example I16, (7S)-N-[(1R,3R)-3-({(1ψ)-2′-cyclobutyl-3′-fluoro-6-[2-oxo-2-(propane-2-sulfonamido)ethyl][1,1′-biphenyl]-2-yl}oxy)cyclopentyl]-7-fluoro-5-azaspiro[3.4]octane-7-carboxamide]		0.03 nM	31.1 nM	5.8 nM		
CN(C)S(=O)(=O)NC(=O)Cc1cccc(O[C@@H]2CC[C@@H](NC(=O)[C@@]3(F)CNC4(CCC4)C3)C2)c1-c1cccc(F)c1C1CCC1 (atropisomer, axis not shown) [Example I17, (7S)-N-[(1R,3R)-3-({(1ψ)-2′-cyclobutyl-6-[2-(dimethylsulfamamido)-2-oxoethyl]-3′-fluoro[1,1′-biphenyl]-2-yl}oxy)cyclopentyl]-7-fluoro-5-azaspiro[3.4]octane-7-carboxamide]		0.02 nM	1.8 nM	0.6 nM		
CC1(C)C[C@](F)(C(=O)N[C@@H]2CC[C@@H](Oc3ccc(C(C)(C)C(=O)O)cc3-c3cccc(F)c3C3CCC3)C2)CN1 (single isomer, unassigned) [Example A4]	76.4 nM	4.12 nM	147 nM			
CC(C)(C(=O)O)c1ccc(O[C@@H]2CC[C@@H](NC(=O)[C@@]3(F)CNC4(CCCC4)C3)C2)c(-c2cccc(F)c2C2CCC2)c1 (single isomer, unassigned) [Example A5]		1800 nM	7560 nM			
O=C(O)Cc1ccc(O[C@@H]2CC[C@@H](NC(=O)[C@@]3(F)CNC4(CCC4)C3)C2)c(-c2cccc(F)c2C2CCC2)c1 (single isomer, unassigned) [Example A7]	4.45 nM	1.25 nM	30.9 nM			
CC[C@](C)(C(=O)O)c1ccc(O[C@@H]2CC[C@@H](NC(=O)[C@]3(F)CNC4(CCC4)C3)C2)c(-c2cccc(F)c2C2CCC2)c1 (single isomer, unassigned) [Example A9]		0.84 nM		11.1 nM	135 nM	
CC[C@](C)(C(=O)O)c1ccc(O[C@@H]2CC[C@@H](NC(=O)[C@]3(F)CNC4(CCC4)C3)C2)c(-c2cccc(F)c2C2CCC2)c1 (single isomer, unassigned) [Example A12]		1.78 nM		28.8 nM	368 nM	
CC1(C)C[C@@](F)(C(=O)N[C@@H]2CC[C@@H](Oc3ccc(C(=O)O)cc3-c3cccc(F)c3C3CCC3)C2)CN1 (single isomer, unassigned) [Example A14]		1.32 nM	157 nM	4.88 nM		
C[C@H](C(=O)O)c1ccc(O[C@@H]2CC[C@@H](NC(=O)[C@@]3(F)CNC4(CCC4)C3)C2)c(-c2cccc(F)c2C2CCC2)c1 (single isomer, unassigned) [Example A19]	10 nM	2.4 nM			431 nM	
CC(C)c1ccccc1-c1cc(C(=O)O)ccc1O[C@@H]1CC[C@@H](NC(=O)[C@@]2(F)CNC3(CCCC3)C2)C1 (single isomer, unassigned) [Example A41]				3 nM	9.2 nM	
CN(C)S(=O)(=O)NC(=O)c1cccc(O[C@@H]2CC[C@@H](NC(=O)[C@@]3(F)CNC4(CCC4)C3)C2)c1-c1cccc(F)c1C1CCC1 [Example I20, (7S)-N-[(1R,3R)-3-({(1ψ)-2′-cyclobutyl-6-[(dimethylsulfamoyl)carbamoyl]-3′-fluoro[1,1′-biphenyl]-2-yl}oxy)cyclopentyl]-7-fluoro-5-azaspiro[3.4]octane-7-carboxamide]		26.3 nM		51.9 nM		
CN1CC(C)(C)C[C@H]1C(=O)N[C@@H]1CC[C@@H](Oc2ccc(-c3nn(C)cc3CC(=O)O)cc2-c2cccc(F)c2C2CCC2)C1 [Example J8, {3-[2′-cyclobutyl-3′-fluoro-6-({(1R,3R)-3-[(1,4,4-trimethyl-L-prolyl)amino]cyclopentyl}oxy)[1,1′-biphenyl]-3-yl]-1-methyl-1H-pyrazol-4-yl}acetic acid]	2.71 nM	0.74 nM				
CN1CC(C)(C)C[C@H]1C(=O)N[C@H]1C[C@H](Oc2ccc(C(C)(C)C(=O)O)cc2-c2cccc(F)c2C2CCC2)C[C@H]1O [Example K1, 2-[2′-cyclobutyl-3′-fluoro-6-({(1S,3R,4S)-3-hydroxy-4-[(1,4,4-trimethyl-L-prolyl)amino]cyclopentyl}oxy)[1,1′-biphenyl]-3-yl]-2-methylpropanoic acid]	5.19 nM					0.15 nM
